ChEMBL document CHEMBL2440076, “New triarylpyrazoles as broad-spectrum anticancer agents: design, synthesis, and biological evaluation” (Eur J Med Chem, 2013)

Legend:
[1] = tested on: SK-MEL-28; assay: Growth inhibition of human SK-MEL-28 cells after 48 hrs by sulforhodamine B assay; type: functional; settings: SK-MEL-28, 48 h
[2] = tested on: ACHN; assay: Growth inhibition of human ACHN cells after 48 hrs by sulforhodamine B assay; type: functional; settings: for CC50: read-out: LC50 (the source's name)
[3] = tested on: LOX IMVI; assay: Growth inhibition of human LOXIMVI cells assessed as cell growth at 10 uM after 48 hrs by sulforhodamine B assay; type: functional; settings: read-out: Activity
[4] = tested on: COLO 205; assay: Growth inhibition of human COLO205 cells assessed as cell growth at 10 uM after 48 hrs by sulforhodamine B assay; type: functional; settings: COLO 205, 48 h, read-out: Activity
[5] = tested on: SNB-19; assay: Growth inhibition of human SNB19 cells assessed as cell growth at 10 uM after 48 hrs by sulforhodamine B assay; type: functional; settings: SNB-19, 48 h, read-out: Activity
[6] = tested on: HOP-92; assay: Growth inhibition of human HOP92 cells after 48 hrs by sulforhodamine B assay; type: functional, cell-based; settings: HOP-92, 48 h
[7] = tested on: HT-29; assay: Growth inhibition of human HT-29 cells after 48 hrs by sulforhodamine B assay; type: functional; settings: HT-29, 48 h; for CC50: read-out: LC50 (the source's name)
[8] = tested on: NCI-H460; assay: Growth inhibition of human NCI-H460 cells assessed as cell growth at 10 uM after 48 hrs by sulforhodamine B assay; type: functional; settings: NCI-H460, 48 h, read-out: Activity
[9] = tested on: NCI-H23; assay: Growth inhibition of human NCI-H23 cells after 48 hrs by sulforhodamine B assay; type: functional; settings: NCI-H23, 48 h
[10] = tested on: HCT-116; assay: Growth inhibition of human HCT116 cells assessed as cell growth at 10 uM after 48 hrs by sulforhodamine B assay; type: functional; settings: HCT-116, 48 h, read-out: Activity
[11] = tested on: PC-3; assay: Growth inhibition of human PC3 cells assessed as cell growth at 10 uM after 48 hrs by sulforhodamine B assay; type: functional; settings: PC-3, 48 h, read-out: Activity
[12] = tested on: UO-31; assay: Growth inhibition of human UO31 cells assessed as cell growth at 10 uM after 48 hrs by sulforhodamine B assay; type: functional; settings: UO-31, 48 h, read-out: Activity
[13] = tested on: Malme-3M; assay: Growth inhibition of human MALME-3M cells assessed as cell growth at 10 uM after 48 hrs by sulforhodamine B assay; type: functional; settings: read-out: Activity
[14] = tested on: UACC-257; assay: Growth inhibition of human UACC257 cells after 48 hrs by sulforhodamine B assay; type: functional; settings: UACC-257, 48 h; for CC50: read-out: LC50 (the source's name)
[15] = tested on: HT-29; assay: Growth inhibition of human HT-29 cells assessed as cell growth at 10 uM after 48 hrs by sulforhodamine B assay; type: functional; settings: HT-29, 48 h, read-out: Activity
[16] = tested on: SK-MEL-2; assay: Growth inhibition of human SK-MEL-2 cells assessed as cell growth at 10 uM after 48 hrs by sulforhodamine B assay; type: functional; settings: SK-MEL-2, 48 h, read-out: Activity
[17] = tested on: HL-60(TB); assay: Growth inhibition of human HL-60(TB) cells after 48 hrs by sulforhodamine B assay; type: functional; settings: HL-60, 48 h; for CC50: read-out: LC50 (the source's name)
[18] = tested on: 786-0; assay: Growth inhibition of human 786-0 cells assessed as cell growth at 10 uM after 48 hrs by sulforhodamine B assay; type: functional; settings: 786-0, 48 h, read-out: Activity
[19] = tested on: SK-OV-3; assay: Growth inhibition of human SKOV3 cells after 48 hrs by sulforhodamine B assay; type: functional; settings: SK-OV-3, 48 h; for CC50: read-out: LC50 (the source's name)
[20] = tested on: SF-268; assay: Growth inhibition of human SF268 cells assessed as cell growth at 10 uM after 48 hrs by sulforhodamine B assay; type: functional; settings: SF-268, 48 h, read-out: Activity
[21] = tested on: M14; assay: Growth inhibition of human M14 cells after 48 hrs by sulforhodamine B assay; type: functional; settings: M14, 48 h
[22] = tested on: NCI-H23; assay: Growth inhibition of human NCI-H23 cells assessed as cell growth at 10 uM after 48 hrs by sulforhodamine B assay; type: functional; settings: NCI-H23, 48 h, read-out: Activity
[23] = tested on: SK-OV-3; assay: Growth inhibition of human SKOV3 cells assessed as cell growth at 10 uM after 48 hrs by sulforhodamine B assay; type: functional; settings: SK-OV-3, 48 h, read-out: Activity
[24] = tested on: SR; assay: Growth inhibition of human SR cells after 48 hrs by sulforhodamine B assay; type: functional; settings: for CC50: read-out: LC50 (the source's name)
[25] = tested on: UACC-62; assay: Growth inhibition of human UACC62 cells after 48 hrs by sulforhodamine B assay; type: functional; settings: UACC-62, 48 h
[26] = tested on: LOX IMVI; assay: Growth inhibition of human LOXIMVI cells after 48 hrs by sulforhodamine B assay; type: functional
[27] = tested on: SK-MEL-5; assay: Growth inhibition of human SK-MEL-5 cells after 48 hrs by sulforhodamine B assay; type: functional; settings: SK-MEL-5, 48 h
[28] = tested on: HOP-62; assay: Growth inhibition of human HOP62 cells assessed as cell growth at 10 uM after 48 hrs by sulforhodamine B assay; type: functional; settings: HOP-62, 48 h, read-out: Activity
[29] = tested on: 786-0; assay: Growth inhibition of human 786-0 cells after 48 hrs by sulforhodamine B assay; type: functional; settings: 786-0, 48 h; for CC50: read-out: LC50 (the source's name)
[30] = tested on: M14; assay: Growth inhibition of human M14 cells assessed as cell growth at 10 uM after 48 hrs by sulforhodamine B assay; type: functional; settings: M14, 48 h, read-out: Activity
[31] = tested on: OVCAR-8; assay: Growth inhibition of human OVCAR8 cells assessed as cell growth at 10 uM after 48 hrs by sulforhodamine B assay; type: functional; settings: OVCAR-8, 48 h, read-out: Activity
[32] = tested on: OVCAR-3; assay: Growth inhibition of human OVCAR3 cells after 48 hrs by sulforhodamine B assay; type: functional, cell-based; settings: OVCAR-3, 48 h; for CC50: read-out: LC50 (the source's name)
[33] = Growth inhibition of human HCC2998 cells after 48 hrs by sulforhodamine B assay; type: functional; settings: HCC 2998, 48 h; for CC50: read-out: LC50 (the source's name)
[34] = tested on: SNB-19; assay: Growth inhibition of human SNB19 cells after 48 hrs by sulforhodamine B assay; type: functional; settings: SNB-19, 48 h

COc1cc(-c2nn(-c3cccc(NC(=O)Nc4cc(C(F)(F)F)cc(C(F)(F)F)c4)c3)cc2-c2ccncc2)ccc1Cl
GI50 [1]: 0.851 µM
LC50 [1]: 3.38 µM
TGI [1]: 1.7 µM
GI50 [2]: 0.491 µM
TGI [2]: 5.72 µM
CC50 [2]: > 50 µM
growth at 10 µM [3]: -91.3%
growth at 10 µM [4]: -98.7%
growth at 10 µM [5]: 6.55%
GI50 [6]: 0.144 µM
IC50 [6]: 0.14 µM
LC50 [6]: 4.72 µM
TGI [6]: 1.15 µM
GI50 [7]: 0.702 µM
TGI [7]: 1.61 µM
CC50 [7]: 3.71 µM
growth at 10 µM [8]: -49.7%
GI50 [9]: 1.09 µM
LC50 [9]: 29.6 µM
TGI [9]: 3.34 µM
growth at 10 µM [10]: -43.6%
growth at 10 µM [11]: -55.2%
growth at 10 µM [12]: -29.2%
growth at 10 µM [13]: -10.7%
GI50 [14]: 0.916 µM
TGI [14]: 2.35 µM
CC50 [14]: 26.2 µM
growth at 10 µM [15]: -41.2%
growth at 10 µM [16]: -52.1%
GI50 [17]: 1.18 µM
TGI [17]: > 50 µM
CC50 [17]: > 50 µM
growth at 10 µM [18]: -71.1%
GI50 [19]: 1.09 µM
TGI [19]: 2.57 µM
CC50 [19]: 15.4 µM
growth at 10 µM [20]: -46.3%
GI50 [21]: 0.808 µM
LC50 (concentration killing 50% of cells) [21]: > 50 µM
TGI [21]: 2.55 µM
growth at 10 µM [22]: -3.3%
growth at 10 µM [23]: -9.79%
GI50 [24]: 1.08 µM
TGI [24]: 3.97 µM
CC50 [24]: > 50 µM
GI50 [25]: 0.661 µM
LC50 (50% lethal concentration) [25]: 3.78 µM
TGI [25]: 1.58 µM
GI50 [26]: 0.783 µM
LC50 [26]: 2.94 µM
TGI [26]: 1.52 µM
GI50 [27]: 0.694 µM
LC50 (concentration killing 50% of cells) [27]: 2.67 µM
TGI [27]: 1.36 µM
growth at 10 µM [28]: -77.6%
GI50 [29]: 0.95 µM
TGI [29]: 2.02 µM
CC50 [29]: 4.31 µM
growth at 10 µM [30]: -42.1%
growth at 10 µM [31]: -12.7%
GI50 [32]: 0.411 µM
IC50 [32]: 0.41 µM
TGI [32]: 1.23 µM
CC50 [32]: 3.39 µM
GI50 [33]: 0.931 µM
TGI [33]: 1.87 µM
CC50 [33]: 3.76 µM
GI50 [34]: 0.711 µM
LC50 (concentration killing 50% of cells) [34]: > 50 µM
TGI [34]: 3.67 µM

COc1cc(-c2nn(-c3cccc(NC(=O)c4cccc(C(F)(F)F)c4)c3)cc2-c2ccncc2)ccc1Cl
GI50 [1]: 2.49 µM
LC50 [1]: > 50 µM
TGI [1]: > 50 µM
GI50 [2]: 1.89 µM
TGI [2]: > 50 µM
CC50 [2]: > 50 µM
growth at 10 µM [3]: 11.4%
growth at 10 µM [4]: 7.11%
growth at 10 µM [5]: 47.3%
GI50 [6]: 0.555 µM
IC50 [6]: 0.56 µM
LC50 [6]: > 50 µM
TGI [6]: 3.12 µM
GI50 [7]: 1.39 µM
TGI [7]: 20.1 µM
CC50 [7]: > 50 µM
growth at 10 µM [8]: 4.83%
GI50 [9]: 1.56 µM
LC50 [9]: > 50 µM
TGI [9]: 32.5 µM
growth at 10 µM [10]: 8.15%
growth at 10 µM [11]: 4.39%
growth at 10 µM [12]: 25.1%
growth at 10 µM [13]: 10.1%
GI50 [14]: 27.9 µM
TGI [14]: > 50 µM
CC50 [14]: > 50 µM
growth at 10 µM [15]: -12.1%
growth at 10 µM [16]: -38.6%
GI50 [17]: 2.02 µM
TGI [17]: > 50 µM
CC50 [17]: > 50 µM
growth at 10 µM [18]: 29.8%
GI50 [19]: 2.29 µM
TGI [19]: > 50 µM
CC50 [19]: > 50 µM
growth at 10 µM [20]: 30.5%
GI50 [21]: 1.63 µM
LC50 (concentration killing 50% of cells) [21]: > 50 µM
TGI [21]: > 50 µM
growth at 10 µM [22]: 24.8%
growth at 10 µM [23]: 7.18%
GI50 [24]: 0.838 µM
TGI [24]: 4.59 µM
CC50 [24]: > 50 µM
GI50 [25]: 1.94 µM
LC50 (50% lethal concentration) [25]: > 50 µM
TGI [25]: > 50 µM
GI50 [26]: 1.39 µM
LC50 [26]: > 50 µM
TGI [26]: > 50 µM
GI50 [27]: 0.978 µM
LC50 (concentration killing 50% of cells) [27]: 40.6 µM
TGI [27]: 2.47 µM
growth at 10 µM [28]: 22.9%
GI50 [29]: 2.45 µM
TGI [29]: > 50 µM
CC50 [29]: > 50 µM
growth at 10 µM [30]: 12.3%
growth at 10 µM [31]: 11.8%
GI50 [32]: 1.2 µM
IC50 [32]: 1.2 µM
TGI [32]: 2.98 µM
CC50 [32]: > 50 µM
GI50 [33]: 2.24 µM
TGI [33]: 17.6 µM
CC50 [33]: > 50 µM
GI50 [34]: 2.46 µM
LC50 (concentration killing 50% of cells) [34]: > 50 µM
TGI [34]: > 50 µM
